From patent publication US9073855B2, “BCL-2 selective apoptosis-inducing agents for the treatment of cancer and immune diseases” (AbbVie Inc., priority 2008, dated 2015)

Key:
GST-Bcl-2 = GST-Bcl-2 (Homo sapiens, UniProt P10415); experiment: TR-FRET binding assay, GST-Bcl-2 with F-Bak peptide probe; conditions: for Ki: TR-FRET Binding Affinity; for Binding selectivity ratio (Bcl-XL Ki/Bcl-2 Ki): TR-FRET, Bcl-XL Ki divided by Bcl-2 Ki
Summary of the method: (§1)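 Compounds were serially diluted in DMSO from a 50 μM starting solution (2× the starting concentration; 10% DMSO). Plates were incubated for 3 h at room temperature, and TR-FRET was read with 340/35 nm excitation and emission at 520/525 nm (F-Bak) and 495/510 nm (Tb antibody). Ki values were calculated using Wang's competitive-binding equation.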

GST-Bcl-XL = GST-Bcl-XL (Homo sapiens, UniProt Q07817); experiment: TR-FRET binding assay, GST-Bcl-XL with F-Bak peptide probe; conditions: TR-FRET Binding Affinity
Chain of GST-Bcl-XL (Q07817 whole entry): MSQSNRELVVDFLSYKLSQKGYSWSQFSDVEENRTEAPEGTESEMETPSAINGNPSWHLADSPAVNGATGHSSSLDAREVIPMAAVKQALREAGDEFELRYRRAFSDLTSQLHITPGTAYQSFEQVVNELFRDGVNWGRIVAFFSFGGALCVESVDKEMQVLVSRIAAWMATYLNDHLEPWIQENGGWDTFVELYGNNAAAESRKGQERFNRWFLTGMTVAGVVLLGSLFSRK
Summary of the method: as §1

Chain of GST-Bcl-2 (P10415 whole entry): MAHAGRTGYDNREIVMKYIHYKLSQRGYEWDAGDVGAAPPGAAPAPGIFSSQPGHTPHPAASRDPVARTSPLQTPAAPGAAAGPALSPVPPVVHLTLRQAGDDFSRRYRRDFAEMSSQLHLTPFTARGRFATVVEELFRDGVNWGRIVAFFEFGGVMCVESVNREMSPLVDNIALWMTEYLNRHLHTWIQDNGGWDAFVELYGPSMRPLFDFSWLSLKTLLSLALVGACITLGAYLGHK

Row | SMILES | Ki (GST-Bcl-2) | Ki (GST-Bcl-XL) | Binding selectivity ratio (Bcl-XL Ki/Bcl-2 Ki) (GST-Bcl-2)
1 | CO[C@H]1CC[C@H](CNc2ccc(S(=O)(=O)NC(=O)c3ccc(N4CCN(CC5=C(c6ccc(Cl)cc6)CC(C)(C)CC5)CC4)cc3Oc3cccc4[nH]cnc34)cc2[N+](=O)[O-])CC1 [Example 440, Trans-2-(1H-benzimidazol-4-yloxy)-4-(4-{[2-(4-chlorophenyl)-4,4-dimethylcyclohex-1-en-1-yl]methyl}piperazin-1-yl)-N-[(4-{[(4-methoxycyclohexyl)methyl]amino}-3-nitrophenyl)sulfonyl]benzamide] | < 0.01 nM | 45.5 nM | –
2 | CC1(C)CCC(CN2CCN(c3ccc(C(=O)NS(=O)(=O)c4ccc(NCC5(F)CCOCC5)c([N+](=O)[O-])c4)c(Oc4cccc5[nH]cnc45)c3)CC2)=C(c2ccc(Cl)cc2)C1 [Example 441, 2-(1H-benzimidazol-4-yloxy)-4-(4-{[2-(4-chlorophenyl)-4,4-dimethylcyclohex-1-en-1-yl]methyl}piperazin-1-yl)-N-[(4-{[(4-fluorotetrahydro-2H-pyran-4-yl)methyl]amino}-3-nitrophenyl)sulfonyl]benzamide] | < 0.01 nM | 24.2 nM | –
3 | CC1(C)CCC(CN2CCN(c3ccc(C(=O)NS(=O)(=O)c4cnc(OCC5(F)CCOCC5)c(F)c4)c(Oc4cccc5[nH]cnc45)c3)CC2)=C(c2ccc(Cl)cc2)C1 [Example 442, 2-(1H-benzimidazol-4-yloxy)-4-(4-{[2-(4-chlorophenyl)-4,4-dimethylcyclohex-1-en-1-yl]methyl}piperazin-1-yl)-N-({5-fluoro-6-[(4-fluorotetrahydro-2H-pyran-4-yl)methoxy]pyridin-3-yl}sulfonyl)benzamide] | < 0.01 nM | 33.6 nM | –
4 | CC1(C)CCC(CN2CCN(c3ccc(C(=O)NS(=O)(=O)c4cnc(OCC5(F)CCOCC5)c(Cl)c4)c(Oc4cccc5[nH]cnc45)c3)CC2)=C(c2ccc(Cl)cc2)C1 [Example 443, 2-(1H-benzimidazol-4-yloxy)-N-({5-chloro-6-[(4-fluorotetrahydro-2H-pyran-4-yl)methoxy]pyridin-3-yl}sulfonyl)-4-(4-{[2-(4-chlorophenyl)-4,4-dimethylcyclohex-1-en-1-yl]methyl}piperazin-1-yl)benzamide] | < 0.01 nM | 19.4 nM | –
5 | CC1(C)CCC(CN2CCN(c3ccc(C(=O)NS(=O)(=O)c4cnc(OC[C@@H]5CCN(C(CF)CF)C5)c(Cl)c4)c(Oc4cccc5[nH]ncc45)c3)CC2)=C(c2ccc(Cl)cc2)C1 [Example 444, N-{[5-chloro-6-({(3R)-1-[2-fluoro-1-(fluoromethyl)ethyl]pyrrolidin-3-yl}methoxy)pyridin-3-yl]sulfonyl}-4-(4-{[2-(4-chlorophenyl)-4,4-dimethylcyclohex-1-en-1-yl]methyl}piperazin-1-yl)-2-(1H-indazol-4-yloxy)benzamide] | 0.112 nM | 81.5 nM | 727.6
6 | CC1(C)CCC(CN2CCN(c3ccc(C(=O)NS(=O)(=O)c4cnc(OC[C@@H]5CCN(CC(F)F)C5)c(Cl)c4)c(Oc4cccc5[nH]ncc45)c3)CC2)=C(c2ccc(Cl)cc2)C1 [Example 445, N-[(5-chloro-6-{[(3R)-1-(2,2-difluoroethyl)pyrrolidin-3-yl]methoxy}pyridin-3-yl)sulfonyl]-4-(4-{[2-(4-chlorophenyl)-4,4-dimethylcyclohex-1-en-1-yl]methyl}piperazin-1-yl)-2-(1H-indazol-4-yloxy)benzamide] | 0.028 nM | 13.6 nM | 484.2
7 | CO[C@H]1CC[C@H](CNc2ccc(S(=O)(=O)NC(=O)c3ccc(N4CCN(CC5=C(c6ccc(Cl)cc6)CC(C)(C)CC5)CC4)cc3Oc3cccc4[nH]ncc34)cc2[N+](=O)[O-])CC1 [Example 446, Trans-4-(4-{[2-(4-chlorophenyl)-4,4-dimethylcyclohex-1-en-1-yl]methyl}piperazin-1-yl)-2-(1H-indazol-4-yloxy)-N-[(4-{[(4-methoxycyclohexyl)methyl]amino}-3-nitrophenyl)sulfonyl]benzamide] | 0.038 nM | 19.3 nM | 508.4
8 | CC1(C)CCC(CN2CCN(c3ccc(C(=O)NS(=O)(=O)c4ccc(OCC5COCCO5)c([N+](=O)[O-])c4)c(Oc4cccc5[nH]ncc45)c3)CC2)=C(c2ccc(Cl)cc2)C1 (stereo not drawn) [Example 447, 4-(4-{[2-(4-chlorophenyl)-4,4-dimethylcyclohex-1-en-1-yl]methyl}piperazin-1-yl)-N-{[4-(1,4-dioxan-2-ylmethoxy)-3-nitrophenyl]sulfonyl}-2-(1H-indazol-4-yloxy)benzamide] | 0.028 nM | 65.8 nM | –
9 | CC1(C)CCC(CN2CCN(c3ccc(C(=O)NS(=O)(=O)c4cnc(NC5CCN(C6CC6)CC5)c(Cl)c4)c(Oc4cccc5[nH]ncc45)c3)CC2)=C(c2ccc(Cl)cc2)C1 [Example 448, N-({5-chloro-6-[(1-cyclopropylpiperidin-4-yl)amino]pyridin-3-yl}sulfonyl)-4-(4-{[2-(4-chlorophenyl)-4,4-dimethylcyclohex-1-en-1-yl]methyl}piperazin-1-yl)-2-(1H-indazol-4-yloxy)benzamide] | 0.005 nM | 14.6 nM | 3119.3
10 | CC1(C)CCC(CN2CCN(c3ccc(C(=O)NS(=O)(=O)c4cnc(NC5CCN(C6CC6)CC5)c(Cl)c4)c(Oc4cccc5[nH]cnc45)c3)CC2)=C(c2ccc(Cl)cc2)C1 [Example 449, 2-(1H-benzimidazol-4-yloxy)-N-({5-chloro-6-[(1-cyclopropylpiperidin-4-yl)amino]pyridin-3-yl}sulfonyl)-4-(4-{[2-(4-chlorophenyl)-4,4-dimethylcyclohex-1-en-1-yl]methyl}piperazin-1-yl)benzamide] | 0.24 nM | 17.8 nM | 74.4
11 | CC1(C)CCC(CN2CCN(c3ccc(C(=O)NS(=O)(=O)c4ccc(NCC5COCCO5)c([N+](=O)[O-])c4)c(Oc4cccc5[nH]cnc45)c3)CC2)=C(c2ccc(Cl)cc2)C1 (stereo not drawn) [Example 450, 2-(1H-benzimidazol-4-yloxy)-4-(4-{[2-(4-chlorophenyl)-4,4-dimethylcyclohex-1-en-1-yl]methyl}piperazin-1-yl)-N-({4-[(1,4-dioxan-2-ylmethyl)amino]-3-nitrophenyl}sulfonyl)benzamide] | 0.299 nM | 32.1 nM | 107.3
12 | CC1(C)CCC(CN2CCN(c3ccc(C(=O)NS(=O)(=O)c4ccc(NC5CCN(C6CC6)CC5)c([N+](=O)[O-])c4)c(Oc4cccc5[nH]cnc45)c3)CC2)=C(c2ccc(Cl)cc2)C1 [Example 451, 2-(1H-benzimidazol-4-yloxy)-4-(4-{[2-(4-chlorophenyl)-4,4-dimethylcyclohex-1-en-1-yl]methyl}piperazin-1-yl)-N-({4-[(1-cyclopropylpiperidin-4-yl)amino]-3-nitrophenyl}sulfonyl)benzamide] | < 0.01 nM | 3.6 nM | 359.9
13 | CC1(C)CCC(CN2CCN(c3ccc(C(=O)NS(=O)(=O)c4ccc(N[C@H]5CC[C@H](N6CCOCC6)CC5)c([N+](=O)[O-])c4)c(Oc4cccc5[nH]cnc45)c3)CC2)=C(c2ccc(Cl)cc2)C1 [Example 452, Trans-2-(1H-benzimidazol-4-yloxy)-4-(4-{[2-(4-chlorophenyl)-4,4-dimethylcyclohex-1-en-1-yl]methyl}piperazin-1-yl)-N-({4-[(4-morpholin-4-ylcyclohexyl)amino]-3-nitrophenyl}sulfonyl)benzamide] | < 0.01 nM | 6 nM | 600.4
14 | CN1CCN(Nc2ccc(S(=O)(=O)NC(=O)c3ccc(N4CCN(CC5=C(c6ccc(Cl)cc6)CC(C)(C)CC5)CC4)cc3Oc3cccc4[nH]cnc34)cc2[N+](=O)[O-])CC1 [Example 453, 2-(1H-benzimidazol-4-yloxy)-4-(4-{[2-(4-chlorophenyl)-4,4-dimethylcyclohex-1-en-1-yl]methyl}piperazin-1-yl)-N-({4-[(4-methylpiperazin-1-yl)amino]-3-nitrophenyl}sulfonyl)benzamide] | < 0.01 nM | 3.63 nM | 363.0
15 | CN1CCC(CNc2ccc(S(=O)(=O)NC(=O)c3ccc(N4CCN(CC5=C(c6ccc(Cl)cc6)CC(C)(C)CC5)CC4)cc3Oc3cccc4[nH]cnc34)cc2[N+](=O)[O-])CC1 [Example 454, 2-(1H-benzimidazol-4-yloxy)-4-(4-{[2-(4-chlorophenyl)-4,4-dimethylcyclohex-1-en-1-yl]methyl}piperazin-1-yl)-N-[(4-{[(1-methylpiperidin-4-yl)methyl]amino}-3-nitrophenyl)sulfonyl]benzamide] | 0.026 nM | 18.9 nM | –
16 | COCCOCCN1CCO[C@H](CNc2ccc(S(=O)(=O)NC(=O)c3ccc(N4CCN(CC5=C(c6ccc(Cl)cc6)CC(C)(C)CC5)CC4)cc3Oc3cccc4[nH]cnc34)cc2[N+](=O)[O-])C1 [Example 455, 2-(1H-benzimidazol-4-yloxy)-4-(4-{[2-(4-chlorophenyl)-4,4-dimethylcyclohex-1-en-1-yl]methyl}piperazin-1-yl)-N-({4-[({(2R)-4-[2-(2-methoxyethoxy)ethyl]morpholin-2-yl}methyl)amino]-3-nitrophenyl}sulfonyl)benzamide] | 0.004 nM | 0.619 nM | 139.4
17 | CC1(C)CCC(CN2CCN(c3ccc(C(=O)NS(=O)(=O)c4ccc(NCC5CCC(F)(F)CC5)c([N+](=O)[O-])c4)c(Oc4cccc5[nH]cnc45)c3)CC2)=C(c2ccc(Cl)cc2)C1 [Example 456, 2-(1H-benzimidazol-4-yloxy)-4-(4-{[2-(4-chlorophenyl)-4,4-dimethylcyclohex-1-en-1-yl]methyl}piperazin-1-yl)-N-[(4-{[(4,4-difluorocyclohexyl)methyl]amino}-3-nitrophenyl)sulfonyl]benzamide] | < 0.01 nM | 0.54 nM | 54.0
